{"source": "patent US8436049B2", "about": "“Uses of pentamidine and related compounds” (State of Oregon Acting By and Through the State Board of …, priority 2008, dated 2013)", "system": "CUG960 RNA nuclear foci / MBNL-GFP in HeLa cells", "experiment": "CUG foci formation and MBNL-GFP sequestration in HeLa cells transfected with MBNL-GFP and CUG960", "type": "cell-based", "conditions": "50 μM", "description": "HeLa cells were plated in 6 well plates onto coverslips pre-treated with poly-L-lysine. Cells were transfected as described in Example 3. For transfection, 50 ng of MBNL-eGFP plasmid and 500 ng of CUG960 plasmid were transfected for each experiment. A total of 1 μg of plasmid DNA was transfected, with the additional amount being empty pcDNA3 vector. After transfection, pentamidine was added and the cells were fixed 16 hours later.\nCells were fixed for 15 min at room temperature (RT) with 4% paraformaldehyde and washed 5 times for 2 min in 1×PBS at RT. Cells were stored at 4° C., if not probed immediately. For fluorescence in situ hybridization, cells were permeabilized with 2% pre-chilled acetone in 1×PBS, at RT for 5 min. Cells were pre-washed with 30% formamide, 2×SSC for 10 min at RT. Cells were then probed for 2 hours at 37° C., with 1 ng/μl Cy3 CAG10 probe (Integrated DNA Technologies, Coralville, Iowa) in 30% formamide, 2×SSC, 0.02% BSA, 66 μg/ml yeast tRNA, 2 mM vanadyl complex. The cells were washed for 30 min in 30% formamide, 2×SSC at 42° C., then with 1×SSC for 30 min at RT. […] MBNL-eGFP was visualized using GFP fluorescence, exciting from 450-490 nm and visualizing at 520 nm. […]\nCells were scored by eye with the following criteria. […] 201 cells were scored for the MBNL-GFP and CUG960 double transfection. 242 cells treated with pentamidine (50 μM) were scored. […]", "data": [{"smiles": "N=C(N)c1ccc(OCCCCCOc2ccc(C(=N)N)cc2)cc1", "note": "[pentamidine]", "values": [{"measurement": "Characteristics of CUG RNA foci", "value": "the foci became increasingly more diffuse"}, {"measurement": "MBNL sequestration to foci", "value": "partially relieved in many cells"}]}]}
